Results as given in patent US5021431A, “Imidazolyl alkyl guanidine derivatives, processes for their preparation and pharmaceutical preparations containing these compounds” (Heumann Pharma GmbH & Co., priority 1985, dated 1991).
Where a name gives a salt, the structure may show the parent alone. Read-outs that look alike come from different tables or passages of the source.

How the values were obtained:
histamine-H2 receptors = target: T1, histamine-H2 receptors (Cavia porcellus, UniProt P47747); assay: cell-based; design: species or system guinea-pig
T1 construct: determined on the isolated atrium or ileum of the guinea-pig; from tissue; host or cells: isolated right atrium of the guinea-pig
Excerpt: For determining the H2 -agonistic activity (pD2 -values), use is made of the method according to J. M. VAN ROSSUM, (1963), Cumulative dose-response curves, II, Technique for the making of dose-response curves in isolated organs and the evaluation of drug parameters, Arch. Int. Pharmacodyn. Ther. 143, 299-307.
(§1) Pharmacological Data (determined on the isolated atrium or ileum of the guinea-pig)
(§2) The values listed below represent the H2 -agonistic (pD2) and H1 -antagonistic (pA2) effect of the dual active compounds

H1 receptor = H1 receptor (Cavia porcellus, UniProt P31389); assay: cell-based; conditions: isolated ileum of the guinea pig; for Kb: read-out: pA2 ileum (H1-antagonistic effect) (converted)
Excerpt: The new class of structures according to the invention has both an H1 -antagonistic and an H2 -agonistic active component. […] One recognized method for determining H1 -antagonistic activity is the determination of the pA2 -values in vitro (O. ARUNLAKSHANA and H. O. SCHILD (1959) Some quantitative uses of drug antagonists--Br. J. Pharmacol. Chemother. 14, 48-58).
as §1, §2

[1] = isolated right atrium of the guinea pig, read-out: pD2 right atrium (H2-agonistic effect) (converted)
[2] = isolated right atrium of the guinea pig

T1 sequence (P47747 whole entry): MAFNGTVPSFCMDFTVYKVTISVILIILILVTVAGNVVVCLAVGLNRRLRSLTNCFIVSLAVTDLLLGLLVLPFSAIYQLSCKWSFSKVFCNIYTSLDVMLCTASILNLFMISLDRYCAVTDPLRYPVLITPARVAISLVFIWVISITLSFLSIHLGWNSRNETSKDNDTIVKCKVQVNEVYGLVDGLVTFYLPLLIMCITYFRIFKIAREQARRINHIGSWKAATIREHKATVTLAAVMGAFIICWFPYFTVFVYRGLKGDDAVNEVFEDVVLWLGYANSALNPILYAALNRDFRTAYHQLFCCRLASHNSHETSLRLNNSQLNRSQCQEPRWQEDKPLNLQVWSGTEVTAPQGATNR
H1 receptor, sequence (P31389 whole entry): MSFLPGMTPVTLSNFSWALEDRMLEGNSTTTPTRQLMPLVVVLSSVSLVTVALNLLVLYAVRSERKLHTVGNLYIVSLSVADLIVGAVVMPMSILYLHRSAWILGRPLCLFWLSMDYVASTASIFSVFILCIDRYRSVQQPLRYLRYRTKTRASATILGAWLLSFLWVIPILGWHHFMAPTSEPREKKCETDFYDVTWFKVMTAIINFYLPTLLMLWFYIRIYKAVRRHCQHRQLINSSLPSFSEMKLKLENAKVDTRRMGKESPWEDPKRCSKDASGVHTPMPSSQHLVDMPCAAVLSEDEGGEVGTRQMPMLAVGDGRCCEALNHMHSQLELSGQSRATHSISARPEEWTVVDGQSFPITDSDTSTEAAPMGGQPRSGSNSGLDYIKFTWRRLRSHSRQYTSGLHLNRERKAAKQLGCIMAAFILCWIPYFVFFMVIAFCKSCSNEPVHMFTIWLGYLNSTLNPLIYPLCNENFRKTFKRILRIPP

Row | EC50 (histamine-H2 receptors; [1]) | Kb (H1 receptor) | pA2 ileum (H1-antagonistic effect) (H1 receptor) | pD2 right atrium (H2-agonistic effect) (histamine-H2 receptors; [2]) | SMILES | EC50 (histamine-H2 receptors)
1 | 2690 nM | 29.5 nM |  |  | N=C(NCCCc1c[nH]cn1)NCCN(Cc1ccccc1)c1ccc(Cl)cc1 [Example 103, N^1-[3-(4-Imidazolyl)propyl]-N^2-[2-(N-benzyl-N-(4-chlorophenyl)amino)ethyl]-guanidine trihydrochloride] | 
2 | 6920 nM | 57.5 nM |  |  | N=C(NCCCc1c[nH]cn1)NCCN(Cc1ccccc1)c1ccc(Br)cc1 [Example 104, N^1-[3-(4-Imidazolyl)propyl]-N^2-[2-(N-benzyl-N-(4-bromophenyl)amino)ethyl]-guanidine trihydrochloride] | 
3 | 51.3 nM | 2000 nM |  |  | CC(CSCc1ccccn1)NC(=N)NCCCc1c[nH]cn1 (stereo not drawn) [Example 121, N-[3-(Imidazol-4-yl)propyl]-N'-[1-methyl-2-[(pyrid-2-yl)methylthio]-ethyl]-guanidine] | 
4 | 39.8 nM | 52.5 nM | 7.28 | 7.4 | N=C(NCCCc1c[nH]cn1)NCCC(c1ccccc1)c1ccccn1 (stereo not drawn) [Example 127] | 
5 | 63.1 nM | 31.6 nM |  |  | N=C(NCCCc1c[nH]cn1)NCCC(c1ccc(Cl)cc1)c1ccccn1 (stereo not drawn) [Example 129, N-[3-(4-Chlorophenyl)-3-(pyrid-2-yl)propyl]-N'-[3-(imidazol-4-yl)propyl]-guanidine] | 
6 | 83.2 nM | 316 nM |  |  | N=C(NCCCc1c[nH]cn1)NCCC(c1ccc(Br)cc1)c1ccccn1 (stereo not drawn) [Example 131, N-[3-(4-Bromophenyl)-3-(pyrid-2-yl)propyl]-N'-[3-(imidazol-4-yl)propyl]-guanidine] | 
7 | 12.6 nM | 31.6 nM |  |  | NC(=NCCC(c1ccc(F)cc1)c1ccccn1)NCCCc1cnc[nH]1 (stereo not drawn) [Example 133, N-[3-(4-Fluorophenyl)-3-(pyrid-2-yl)propyl]-N'-[3-(imidazol-4-yl)propyl]-guanidine] | 
8 | 93.3 nM | 50.1 nM |  |  | N=C(NCCCc1c[nH]cn1)NCCC(c1ccccn1)c1cccs1 (stereo not drawn) [Example 134, N-[3-(Imidazol-4-yl)propyl]-N'-[3-(pyrid-2-yl)-3-(2thienyl)propyl]-guanidine] | 
9 | 112 nM |  | 6.6 |  | N=C(NCCCc1c[nH]cn1)NCCCC(c1ccccc1)c1ccccn1 (stereo not drawn) [Example 136, N-[3-(Imidazol-4-yl)propyl]-N'-[4-phenyl-4-(pyrid-2-yl)butyl]-guanidine] | 
10 | 1260 nM | 8.91 nM |  |  | NC(=NCCN(Cc1ccccc1)c1ccccn1)NCCCc1c[nH]cn1 [Example 140, N^1-[3-(4-imidazolyl)propyl]-N^2-[2-(N-benzyl-N-(pyrid-2-yl)-amino)ethyl]-guanidine trihydrochloride] | 
11 | 1000 nM | 12.3 nM |  |  | N=C(NCCCc1c[nH]cn1)NCCN(Cc1ccc(Cl)cc1)c1ccccn1 [Example 141, N^1-[3-(1H-Imidazol-4-yl)propyl]-N^2-[2-[N-(4-chlorobenzyl) N-(pyridin-2-yl).amino]ethyl]-guanidine] | 
12 | 1580 nM | 8.32 nM |  |  | COc1ccc(CN(CCN=C(N)NCCCc2c[nH]cn2)c2ccccn2)cc1 [Example 142, N^1-[3-(1H-Imidazol-4-yl)propyl]-N2-[2-[N-(4-methoxybenzyl)-N-(pyridin-2-yl)-amino]ethyl]-guanidine] | 
13 | 1950 nM | 2.57 nM |  |  | NC(=NCCN(Cc1ccc(F)cc1)c1ccccn1)NCCCc1c[nH]cn1 [Example 143, N^1-[3-(1H-Imidazol-4-yl)propyl]-N^2-[2-[N-(4-fluorobenzyl)-N-(pyridin-2-yl)-amino]ethyl]-guanidine] | 
14 | 6030 nM | 398 nM |  |  | Cc1cc(Br)cnc1N(CCNC(=N)NCCCc1c[nH]cn1)Cc1ccccc1 [Example 144, N^1-[2-[N-(5-Bromo-3-methyl-pyridin-2-yl)-benzylamino]ethyl]-N^2-[3-(1H-imidazol-4-yl)propyl]-guanidine trihydrochloride] | 
15 | 6030 nM | 398 nM |  |  | N=C(NCCCc1c[nH]cn1)NCCN(c1ccccc1)c1ccccc1 [Example 145, N^1-[3-(Imidazol-4-yl)propyl]-N^2-[2-(diphenylamino)ethyl]-guanidine trihydrochloride] | 
16 | 1100 nM | 1000 nM |  |  | N=C(NCCCc1c[nH]cn1)NCCN(c1ccccc1)c1ccc(F)cc1 [Example 146, N^1-[3-(Imidazol-4-yl)propyl]-N^2-[2-N-(phenyl-N(4-fluorophenyl)amino)ethyl]-guanidine trihydrochloride] | 
17 | 100 nM | 126 nM |  |  | N=C(NCCCc1c[nH]cn1)NCCN(c1ccccc1)c1ccccn1 [Example 147, N^1-[3-(Imidazol-4-yl)propyl]-N^2-[2-(N-(2-pyridyl)-N-phenylamino)ethyl]-guanidine trihydrochloride] | 
18 | 316 nM | 15.8 nM |  |  | N=C(NCCCc1c[nH]cn1)NCCN(c1ccc(F)cc1)c1ccccn1 [Example 148, N^1-[3-(Imidazol-4-yl)propyl]-N^2-[2-(N-(2-pyridyl)N-(4-fluorophenyl)amino)ethyl]-guanidine trihydrochloride] | 

Second part, the compound before the results:

Row | SMILES | EC50 (histamine-H2 receptors; [1]) | Kb (H1 receptor) | pA2 ileum (H1-antagonistic effect) (H1 receptor) | pD2 right atrium (H2-agonistic effect) (histamine-H2 receptors; [2]) | EC50 (histamine-H2 receptors)
19 | Cc1ccc(N(C)CCCNC(=N)NCCCc2c[nH]cn2)nc1 [Example 10, N^1-[3-[N-(5-Methyl-pyridin-2-yl)-methylamino]propyl]-N^2-[3-(1H-imidazol-4-yl)propyl]guanidine trihydrochloride] | 891 nM | 112 nM |  |  | 
20 | N=C(NCCCCc1cccnc1)NCCCc1c[nH]cn1 [Example 12, N^1-[4-(Pyridin-3-yl)butyl]-N^2-[3-(1H-imidazol-4-yl)propyl]guanidine trihydrochloride] | 200 nM | 562 nM |  |  | 
21 | Cc1cc(Br)cnc1CCCCNC(=N)NCCCc1c[nH]cn1 [Example 17, N^1-[4-(5-Bromo-3-methyl-pyridin-2-yl)butyl]-N^2 [3-(1H-imidazol-4-yl)propyl]-guanidine trihydrochloride] | 1200 nM | 3.24 nM |  |  | 
22 | Cc1[nH]c(CN(C)C)nc1CSCCNC(=N)NCCCc1c[nH]cn1 [Example 51, N-[2-[(2-Dimethylaminomethyl-5-methylimidazol-4-yl)methylthio]ethyl]-N'-[3-(imidazol-4-yl)propyl]-guanidine] | 67.6 nM | 3160 nM |  |  | 
23 | CC(SCCNC(=N)NCCCc1c[nH]cn1)c1ccccc1 (stereo not drawn) [Example 60, N-[3-(Imidazol-4-yl)propyl]-N'-[2-[(1-phenylethyl)thio]ethyl]-guanidine] | 288 nM | 2290 nM |  |  | 
24 | Cc1ccc(C(SCCNC(=N)NCCCc2c[nH]cn2)c2ccccc2)cc1 (stereo not drawn) [Example 62, N-[3-(Imidazol-4-yl)propyl]-N'-[2-[(p-methyl-α-phenylbenzyl)thio]ethyl]-guanidine] | 3890 nM | 11500 nM |  |  | 
25 | N=C(NCCCc1c[nH]cn1)NCCC(c1ccccc1)c1ccccc1 [Example 78, N-[3-(Imidazol-4-yl)propyl]-N'-(3.3-diphenylpropyl)-guanidine] | 67.6 nM | 63.1 nM | 7.20 |  | 
26 | Cc1[nH]cnc1CCCNC(=N)NCCC(c1ccccc1)c1ccccc1 [Example 96, N-[3-(5-Methylimidazol-4-yl)propyl]-N'-(3,3-diphenylpropyl)-guanidine] | 126 nM | 126 nM | 6.9 |  | 
27 | N=C(NCCCc1c[nH]cn1)NCCCC(c1ccccc1)c1ccccc1 [Example 97, N-[3-(Imidazol-4-yl)propyl]-N'(4,4-diphenylbutyl)-guanidine] | 200 nM | 158 nM |  |  | 
28 | N=C(NCCCc1c[nH]cn1)NCCN(Cc1ccccc1)c1ccccc1 [Example 101, N^1-[3-(4-Imidazolyl)propyl]-N^2-[2-(N-benzyl-N-phenylamino)-ethyl]-guanidine trihydrochloride] |  |  | 7.41 | 6.15 | 
29 | N=C(NCCCc1c[nH]cn1)NCCN(Cc1ccccc1)c1ccc(F)cc1 [Example 102, N^1-[3-(4-Imidazolyl)propyl]-N^2-[2-(N-benzyl-N-(4-fluorophenyl)amino)ethyl]-guanidine trihydrochloride] | 234 nM | 25.1 nM |  |  | 
30 | N=C(NCCCc1c[nH]cn1)NCCSCc1cccs1 [Example 105, N-[3-(Imidazol-4-yl)propyl]-N'-[2-(2-thenylthio)ethyl]-guanidine] |  | 1230 nM |  |  | 51.3 nM
31 | N=C(NCCCc1c[nH]cn1)NCCSC(c1ccccc1)c1ccccn1 (stereo not drawn) [Example 123, N-[3-(Imidazol-4-yl)propyl]-N'-[2-[(phenyl(pyrid-2-yl)methyl)thio]ethyl]-guanidine] | 224 nM |  | 7.0 |  | 
